Legend:
Format in all cases: biochemical
[1] = biological target: T1, cathepsin K activated from recombinant human procathepsin K (Homo sapiens, UniProt P43235); experiment: Cathepsin K enzyme inhibition in vitro (kinetic fluorescence assay); conditions: Ki(cathepsin K)/Ki(calpain) ratio
T1 construct: purchased Calbiochem 342001; host or cells: E. coli
T1 sequence (P43235 115-329): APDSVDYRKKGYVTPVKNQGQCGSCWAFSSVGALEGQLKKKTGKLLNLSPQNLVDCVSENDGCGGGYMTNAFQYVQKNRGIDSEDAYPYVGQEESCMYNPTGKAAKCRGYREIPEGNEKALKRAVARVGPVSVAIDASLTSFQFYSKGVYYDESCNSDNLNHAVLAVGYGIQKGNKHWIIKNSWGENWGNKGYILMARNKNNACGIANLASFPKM
Procedure, shortened: (§1)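 Kinetic AMC fluorescence (ex 390/em 460 nm), room temperature. Calpain-I 20 nM, 100 μM Suc-Leu-Tyr-AMC, imidazole/CaCl2 pH 7.3; cathepsins B 0.25 nM/100 μM Z-Phe-Arg-AMC, K 3 nM/10 μM Z-Gly-Pro-Arg-AMC, S 0.5 nM/20 μM Z-Val-Val-Arg-AMC, each MES/EDTA/cysteine pH 6.0. Ki from IC50 via Cheng-Prusoff, averaging 2–4 curves.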

[2] = biological target: T2, recombinant human cathepsin S (Homo sapiens, UniProt P25774); experiment: Cathepsin S enzyme inhibition in vitro (kinetic fluorescence assay); conditions: Ki(cathepsin S)/Ki(calpain) ratio
T2 construct: purchased Calbiochem 219343; host or cells: E. coli
Procedure, shortened: as §1

[3] = biological target: T3, calpain-I isolated from human erythrocytes (Homo sapiens, UniProt P07384); experiment: Calpain I enzyme inhibition in vitro (kinetic fluorescence assay); conditions: apparent Ki from IC50 (Cheng-Prussoff); 20 nM calpain-I, 100 μM Suc-Leu-Tyr-AMC, pH 7.3, room temperature
T3 construct: calpain-I—isolated from human erythrocytes; purchased Calbiochem 208713; host or cells: human erythrocytes (tissue-derived)
T3 sequence (P07384 1-714): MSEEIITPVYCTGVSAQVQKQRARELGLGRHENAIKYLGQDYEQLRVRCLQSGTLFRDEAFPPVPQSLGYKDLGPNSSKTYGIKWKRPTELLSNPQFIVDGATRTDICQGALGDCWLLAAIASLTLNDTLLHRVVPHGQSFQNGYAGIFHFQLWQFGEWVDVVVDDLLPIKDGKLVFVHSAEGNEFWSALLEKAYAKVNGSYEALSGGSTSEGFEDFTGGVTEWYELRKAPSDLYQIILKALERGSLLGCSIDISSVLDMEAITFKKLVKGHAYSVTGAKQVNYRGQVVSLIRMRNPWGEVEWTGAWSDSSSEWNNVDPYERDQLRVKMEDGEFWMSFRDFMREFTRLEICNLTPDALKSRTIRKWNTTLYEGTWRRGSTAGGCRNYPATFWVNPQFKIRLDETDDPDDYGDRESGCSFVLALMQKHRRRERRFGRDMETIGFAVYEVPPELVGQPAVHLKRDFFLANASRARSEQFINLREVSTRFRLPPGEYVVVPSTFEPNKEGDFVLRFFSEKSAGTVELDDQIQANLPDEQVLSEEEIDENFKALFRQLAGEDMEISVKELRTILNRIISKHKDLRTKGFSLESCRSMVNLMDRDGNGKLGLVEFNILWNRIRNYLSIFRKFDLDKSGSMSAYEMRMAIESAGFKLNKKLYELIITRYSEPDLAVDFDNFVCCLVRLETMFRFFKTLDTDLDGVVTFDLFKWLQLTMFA
T3 sequence (P04632 1-268 partner): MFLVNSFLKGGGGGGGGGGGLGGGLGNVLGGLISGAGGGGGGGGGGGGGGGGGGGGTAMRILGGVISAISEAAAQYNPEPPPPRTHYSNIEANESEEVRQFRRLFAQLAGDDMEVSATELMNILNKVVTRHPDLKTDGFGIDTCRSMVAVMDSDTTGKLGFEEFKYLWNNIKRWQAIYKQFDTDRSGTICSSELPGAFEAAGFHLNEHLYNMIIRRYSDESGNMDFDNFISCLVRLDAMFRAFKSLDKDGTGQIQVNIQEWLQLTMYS
Procedure, shortened: as §1

[4] = biological target: T4, cathepsin L isolated from human liver (Homo sapiens, UniProt P07711); experiment: Cathepsin L enzyme inhibition in vitro (kinetic fluorescence assay); conditions: Ki(cathepsin L)/Ki(calpain) ratio
T4 construct: cathepsin L—isolated from human liver; purchased Calbiochem 219402; host or cells: human liver (tissue-derived)
Experimental: Testing for blockade of the corresponding enzymic activities was carried out by means of kinetic fluorescence assays (excitation 390 nm, emission 460 nm).
Apparent Ki values were calculated from the experimentally determined IC50 values by the Cheng-Prussoff relation assuming a reversible competitive enzyme inhibition. The Km values of the substrates used under the assay conditions indicated above were: 90 μM (Z-Phe-Arg-AMC, cathepsin B), 10 μM (Z-Gly-Pro-Arg-AMC, cathepsin K), 2 μM (Z-Phe-Arg-AMC, cathepsin L), and 30 μM (Z-Val-Val-Arg-AMC, cathepsin S).
The indicated Ki values are averages of the inhibition constants calculated on the basis of 2 to 4 independent dose-effect plots.
• 20 nM calpain-I—isolated from human erythrocytes (Calbiochem #208713), 100 μM Suc-Leu-Tyr-AMC (Bachem #I-1355) as substrate in buffer with 62 mM imidazole, 0.3 mM CaCl2, 0.10% CHAPS, 0.05% BSA, 1 mM DTT at pH 7.3 and room temperature. 1. Cathepsin B: • 0.25 nM cathepsin B—isolated from human liver (Calbiochem #219362), 100 μM Z-Phe-Arg-AMC (Bachem #I-1160) as substrate 50 mM MES, 2 mM EDTA, 0.05% Brij 35, 2.5 mM L-cysteine, pH 6.0, room temperature. 3. Cathepsin K: • 3 nM cathepsin K activated from recombinant human procathepsin K from E. coli (Calbiochem #342001), 10 μM Z-Gly-Pro-Arg-AMC (Biomol #P-142) as substrate in 50 mM MES, 2 mM EDTA, 0.05% Brij 35, 2.5 mM L-cysteine, pH 6.0, room temperature. 4. Cathepsin L: • 1 nM cathepsin L—isolated from human liver (Calbiochem #219402), 2 μM Z-Phe-Arg-AMC (Bachem #I-1160) as substrate in 50 mM MES, 2 mM EDTA, 0.05% Brij 35, 2.5 mM L-cysteine, pH 6.0, room temperature. 5. Cathepsin S: • 0.5 nM recombinant human cathepsin S from E. coli (Calbiochem #219343), 20 μM Z-Val-Val-Arg-AMC (Bachem #I-1540) as substrate in 50 mM MES, 2 mM EDTA, 0.05% Brij 35, 2.5 mM L-cysteine, pH 6.0, room temperature.

[5] = biological target: T5, cathepsin B isolated from human liver (Homo sapiens, UniProt P07858); experiment: Cathepsin B enzyme inhibition in vitro (kinetic fluorescence assay); conditions: Ki(cathepsin B)/Ki(calpain) ratio
T5 construct: cathepsin B—isolated from human liver; purchased Calbiochem 219362; host or cells: human liver (tissue-derived)
Procedure, shortened: as §1

T2 sequence (P25774 115-331): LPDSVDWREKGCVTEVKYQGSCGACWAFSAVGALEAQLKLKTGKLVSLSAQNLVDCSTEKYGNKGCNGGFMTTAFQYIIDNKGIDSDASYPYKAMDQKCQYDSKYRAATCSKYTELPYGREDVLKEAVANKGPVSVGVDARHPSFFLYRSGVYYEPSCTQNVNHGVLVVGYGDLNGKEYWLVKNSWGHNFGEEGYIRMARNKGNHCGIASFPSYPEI
T4 sequence (P07711 114-333): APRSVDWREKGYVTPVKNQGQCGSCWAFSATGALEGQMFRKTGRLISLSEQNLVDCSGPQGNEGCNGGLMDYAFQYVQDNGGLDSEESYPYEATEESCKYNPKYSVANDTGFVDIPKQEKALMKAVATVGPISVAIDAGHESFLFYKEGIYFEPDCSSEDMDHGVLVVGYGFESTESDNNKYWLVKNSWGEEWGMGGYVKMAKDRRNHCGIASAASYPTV

| Structure (SMILES) | Sel cat. K [1] | Sel cat. S [2] | Ki [3] [nM] | Sel cat. L [4] | Sel cat. B [5] |
| --- | --- | --- | --- | --- | --- |
| O=C(NCc1ccc2c(c1)OCO2)C(=O)C(Cc1ccccc1)NC(=O)[C@H]1CCC(=O)N1Cc1ccccc1 (mixture of isomers) [Example 66, (2R)—N-(4-(Benzo[d][1,3]-dioxol-5-ylmethylamino)-3,4-dioxo-1-phenylbutan-2-yl)-1-benzyl-5-oxopyrrolidine-2-carboxamide] | ++ (10<Ki(cathepsin B)/Ki(calpain)≦30) | +++ (Ki(cathepsin S)/Ki(calpain) ratio of >100) | 50 to 100 | ++ (10<Ki(cathepsin B)/Ki(calpain)≦30) | +++ (Ki(cathepsin B)/Ki(calpain) ratio of >30) |
| O=C(NCc1ccc(F)cc1)C(=O)C(Cc1ccccc1)NC(=O)[C@H]1CCC(=O)N1Cc1ccccc1 (mixture of isomers) [Example 67, (2R)-1-Benzyl-N-(4-(4-fluorobenzylamino)-3,4-dioxo-1-phenylbutan-2-yl)-5-oxopyrrolidine-2-carboxamide] | +++ (Ki(cathepsin K)/Ki(calpain) ratio of >30) | +++ (Ki(cathepsin S)/Ki(calpain) ratio of >100) | < 50 | +++ (Ki(cathepsin L)/Ki(calpain) ratio of >30) | +++ (Ki(cathepsin B)/Ki(calpain) ratio of >30) |
| NC(=O)C(=O)C(Cc1ccccc1)NC(=O)[C@H]1CCC(=O)N1Cc1cccc(Cl)c1 (stereo partly drawn) [Example 3, (2R)—N-(4-Amino-3,4-dioxo-1-phenylbutan-2-yl)-1-(3-chlorobenzyl)-5-oxopyrrolidine-2-carboxamide] | +++ (Ki(cathepsin K)/Ki(calpain) ratio of >30) | +++ (Ki(cathepsin S)/Ki(calpain) ratio of >100) | < 50 | ++ (10<Ki(cathepsin B)/Ki(calpain)≦30) | ++ (10<Ki(cathepsin B)/Ki(calpain)≦30) |
| NC(=O)C(=O)C(Cc1ccccc1)NC(=O)[C@H]1CCC(=O)N1Cc1ccc(F)cc1 (stereo partly drawn) [Example 5, (2R)—N-(4-Amino-3,4-dioxo-1-phenylbutan-2-yl)-1-(4-fluorobenzyl)-5-oxopyrrolidine-2-carboxamide] | ++ (10<Ki(cathepsin B)/Ki(calpain)≦30) | ++ (30<Ki(cathepsin B)/Ki(calpain)≦100) | 50 to 100 | ++ (10<Ki(cathepsin B)/Ki(calpain)≦30) | ++ (10<Ki(cathepsin B)/Ki(calpain)≦30) |
| NC(=O)C(=O)C(Cc1ccccc1)NC(=O)[C@H]1CCC(=O)N1Cc1cccc(F)c1 (stereo partly drawn) [Example 8, (2R)—N-(4-Amino-3,4-dioxo-1-phenylbutan-2-yl)-1-(3-fluorobenzyl)-5-oxopyrrolidine-2-carboxamide] | ++ (10<Ki(cathepsin B)/Ki(calpain)≦30) | +++ (Ki(cathepsin S)/Ki(calpain) ratio of >100) | 50 to 100 | ++ (10<Ki(cathepsin B)/Ki(calpain)≦30) | +++ (Ki(cathepsin B)/Ki(calpain) ratio of >30) |
| N#Cc1cccc(CN2C(=O)CC[C@@H]2C(=O)NC(Cc2ccccc2)C(=O)C(N)=O)c1 (stereo partly drawn) [Example 16, (2R)—N-(4-Amino-3,4-dioxo-1-phenylbutan-2-yl)-1-(3-cyanobenzyl)-5-oxopyrrolidine-2-carboxamide] | +++ (Ki(cathepsin K)/Ki(calpain) ratio of >30) | + (10<Ki(cathepsin S)/Ki(calpain)≦30) | 100 to 600 | ++ (10<Ki(cathepsin B)/Ki(calpain)≦30) | ++ (10<Ki(cathepsin B)/Ki(calpain)≦30) |
| NC(=O)C(=O)C(Cc1ccccc1)NC(=O)[C@H]1CCC(=O)N1Cc1ccccc1C(F)(F)F (stereo partly drawn) [Example 17, (2R)—N-(4-Amino-3,4-dioxo-1-phenylbutan-2-yl)-5-oxo-1-[2-(trifluoromethyl)benzyl]-pyrrolidine-2-carboxamide] | +++ (Ki(cathepsin K)/Ki(calpain) ratio of >30) | +++ (Ki(cathepsin S)/Ki(calpain) ratio of >100) | 50 to 100 | +++ (Ki(cathepsin L)/Ki(calpain) ratio of >30) | ++ (10<Ki(cathepsin B)/Ki(calpain)≦30) |
| NC(=O)C(=O)C(Cc1ccccc1)NC(=O)[C@H]1CCC(=O)N1Cc1c(F)cccc1F (stereo partly drawn) [Example 51, (2R)—N-(4-Amino-3,4-dioxo-1-phenylbutan-2-yl)-5-oxo-1-(2,6-difluorobenzyl)-pyrrolidine-2-carboxamide] | +++ (Ki(cathepsin K)/Ki(calpain) ratio of >30) | +++ (Ki(cathepsin S)/Ki(calpain) ratio of >100) | 50 to 100 | ++ (10<Ki(cathepsin B)/Ki(calpain)≦30) | ++ (10<Ki(cathepsin B)/Ki(calpain)≦30) |
| O=C(NCc1ncco1)C(=O)C(Cc1ccccc1)NC(=O)[C@H]1CCC(=O)N1Cc1ccccc1 (stereo partly drawn) [Example 64, (2R)-1-Benzyl-N-(4-(oxazol-2-ylmethylamino)-3,4-dioxo-1-phenylbutan-2-yl)-5-oxopyrrolidine-2-carboxamide] | +++ (Ki(cathepsin K)/Ki(calpain) ratio of >30) | +++ (Ki(cathepsin S)/Ki(calpain) ratio of >100) | 100 to 600 | ++ (10<Ki(cathepsin B)/Ki(calpain)≦30) | ++ (10<Ki(cathepsin B)/Ki(calpain)≦30) |
